Here are results for one compound from ChEMBL document CHEMBL6092226, “Tilting the Scales toward EGFR Mutant Selectivity: Expanding the Scope of Bivalent "Type V" Kinase Inhibitors” (J Med Chem, 2024).

Usually EC50 stands for the concentration needed to bring the measured effect to its halfway point. As a reminder, the inhibition is the change of the read-out against control, counted positive when it falls.

Activity calls are given as the source filed them. No cut-off for these calls is given here.

Data set [1] deals with Epidermal growth factor receptor (Homo sapiens, UniProt P00533, L858R/T790M). In words: Time-dependent irreversible inhibition of GST-tagged EGFR L858R/T790M mutant cytoplasmic domain (669 to 1210 residues) (unknown origin) assessed as apparent inactivation constant (Ki) incubated for 240 mins in presence of ATP by fluorescence based analysis. To be noted: read-out: Ki(app).

Data set [2] has as its system BaF3. The class given is functional, cell-based. The following applies: Mus musculus, BaF3, 72 h.
A short description of data set [3]: Metabolic stability in pooled male human liver microsomes at 150 uM measured after 2 hrs in presence of NADPH regenerating system by LC-MS analysis. The class given is ADME, Microsome. (Liver microsomes are vesicles of endoplasmic reticulum, rich in cytochrome P450 enzymes.)
Data set [4] in a line: Drug metabolism in pooled male human liver microsomes assessed as thioether oxidation mediated metabolite formation at 150 uM measured after 2 hrs by LC-MS analysis. The class given is ADME, Microsome.
The species entered for another data set is Homo sapiens. Nature of the data set: Inhibition of DMPK2 (unknown origin) at 1 uM by Eurofins DiscoverX KINOMEscan analysis relative to control.
Data set [5] concerns the target Myosin-IIIa (Homo sapiens) (UniProt Q8NEV4). In words: Inhibition of MYO3A (unknown origin) at 1 uM by Eurofins DiscoverX KINOMEscan analysis relative to control.
The target of data set [6] is T1, Dual specificity mitogen-activated protein kinase kinase 7 (Homo sapiens) (UniProt O14733).
T1 sequence (whole entry): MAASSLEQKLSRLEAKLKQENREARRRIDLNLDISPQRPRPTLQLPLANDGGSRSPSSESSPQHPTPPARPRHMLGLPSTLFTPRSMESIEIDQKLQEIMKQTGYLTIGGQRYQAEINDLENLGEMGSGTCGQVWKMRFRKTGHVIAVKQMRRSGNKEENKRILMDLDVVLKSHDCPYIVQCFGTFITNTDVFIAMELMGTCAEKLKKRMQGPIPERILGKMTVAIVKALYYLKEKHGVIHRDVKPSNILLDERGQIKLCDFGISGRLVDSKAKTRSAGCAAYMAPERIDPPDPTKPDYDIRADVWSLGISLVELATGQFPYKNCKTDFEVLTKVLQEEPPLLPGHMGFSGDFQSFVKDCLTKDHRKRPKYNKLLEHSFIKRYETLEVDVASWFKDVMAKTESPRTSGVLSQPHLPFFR
In words: Inhibition of MKK7 (unknown origin) at 1 uM by Eurofins DiscoverX KINOMEscan analysis.

In data set [7] the target is T2, Tyrosine-protein kinase ITK/TSK (Homo sapiens) (UniProt Q08881).
T2 sequence (whole entry): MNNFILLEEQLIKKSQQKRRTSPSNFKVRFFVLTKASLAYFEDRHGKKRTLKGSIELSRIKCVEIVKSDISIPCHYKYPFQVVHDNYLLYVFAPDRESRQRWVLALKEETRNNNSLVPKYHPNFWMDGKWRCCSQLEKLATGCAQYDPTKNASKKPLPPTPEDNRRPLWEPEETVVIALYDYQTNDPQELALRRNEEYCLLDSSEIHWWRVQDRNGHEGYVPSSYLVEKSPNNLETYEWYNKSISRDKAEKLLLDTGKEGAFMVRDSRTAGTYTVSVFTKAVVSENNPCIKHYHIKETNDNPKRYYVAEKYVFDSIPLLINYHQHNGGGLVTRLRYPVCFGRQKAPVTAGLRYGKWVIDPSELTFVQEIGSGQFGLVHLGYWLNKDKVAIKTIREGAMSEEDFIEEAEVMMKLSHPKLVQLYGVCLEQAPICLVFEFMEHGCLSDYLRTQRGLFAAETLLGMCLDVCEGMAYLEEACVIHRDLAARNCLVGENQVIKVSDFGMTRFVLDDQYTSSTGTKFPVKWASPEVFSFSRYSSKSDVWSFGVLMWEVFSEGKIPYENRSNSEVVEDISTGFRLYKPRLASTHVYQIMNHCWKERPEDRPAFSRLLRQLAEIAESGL
In words: Inhibition of ITK (unknown origin) at 1 uM by Eurofins DiscoverX KINOMEscan analysis.

For data set [8], the target named is T3, Tyrosine-protein kinase Tec (Homo sapiens) (UniProt P42680).
T3 sequence (whole entry): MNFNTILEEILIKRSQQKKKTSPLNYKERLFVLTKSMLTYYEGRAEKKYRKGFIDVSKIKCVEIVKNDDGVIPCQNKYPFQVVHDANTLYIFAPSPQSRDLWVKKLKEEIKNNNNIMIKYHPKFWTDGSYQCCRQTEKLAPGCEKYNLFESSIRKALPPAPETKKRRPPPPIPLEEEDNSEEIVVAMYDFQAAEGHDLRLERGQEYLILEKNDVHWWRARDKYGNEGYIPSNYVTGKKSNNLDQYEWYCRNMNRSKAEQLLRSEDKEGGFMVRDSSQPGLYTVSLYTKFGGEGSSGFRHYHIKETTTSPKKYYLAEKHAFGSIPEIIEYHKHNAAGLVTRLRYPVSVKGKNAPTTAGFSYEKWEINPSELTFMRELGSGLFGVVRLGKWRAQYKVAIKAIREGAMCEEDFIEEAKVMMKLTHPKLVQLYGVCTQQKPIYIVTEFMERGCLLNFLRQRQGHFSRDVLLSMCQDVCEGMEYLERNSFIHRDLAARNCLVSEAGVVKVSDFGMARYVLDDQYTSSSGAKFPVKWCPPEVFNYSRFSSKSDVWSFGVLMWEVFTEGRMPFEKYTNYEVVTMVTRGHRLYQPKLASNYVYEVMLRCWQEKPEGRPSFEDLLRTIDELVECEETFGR
Nature of the data set: Inhibition of TEC (unknown origin) at 1 uM by Eurofins DiscoverX KINOMEscan analysis.

In data set [9] the target is Tyrosine-protein kinase Blk (Homo sapiens) (UniProt P51451). Nature of the data set: Inhibition of BLK (unknown origin) at 1 uM by Eurofins DiscoverX KINOMEscan analysis.
Another data set in a line: cells. To be noted: Homo sapiens, NCI-H1975, 72 h.
For a further data set, the system named is HCC827. In words: cells. The following applies: Homo sapiens, HCC827, 72 h.
Data set [10] relates to BaF3. Nature of the data set: cells. The following applies: Mus musculus, BaF3, 72 h.

Sequence of Epidermal growth factor receptor (P00533 25-1210 T790M/L858R limits assumed): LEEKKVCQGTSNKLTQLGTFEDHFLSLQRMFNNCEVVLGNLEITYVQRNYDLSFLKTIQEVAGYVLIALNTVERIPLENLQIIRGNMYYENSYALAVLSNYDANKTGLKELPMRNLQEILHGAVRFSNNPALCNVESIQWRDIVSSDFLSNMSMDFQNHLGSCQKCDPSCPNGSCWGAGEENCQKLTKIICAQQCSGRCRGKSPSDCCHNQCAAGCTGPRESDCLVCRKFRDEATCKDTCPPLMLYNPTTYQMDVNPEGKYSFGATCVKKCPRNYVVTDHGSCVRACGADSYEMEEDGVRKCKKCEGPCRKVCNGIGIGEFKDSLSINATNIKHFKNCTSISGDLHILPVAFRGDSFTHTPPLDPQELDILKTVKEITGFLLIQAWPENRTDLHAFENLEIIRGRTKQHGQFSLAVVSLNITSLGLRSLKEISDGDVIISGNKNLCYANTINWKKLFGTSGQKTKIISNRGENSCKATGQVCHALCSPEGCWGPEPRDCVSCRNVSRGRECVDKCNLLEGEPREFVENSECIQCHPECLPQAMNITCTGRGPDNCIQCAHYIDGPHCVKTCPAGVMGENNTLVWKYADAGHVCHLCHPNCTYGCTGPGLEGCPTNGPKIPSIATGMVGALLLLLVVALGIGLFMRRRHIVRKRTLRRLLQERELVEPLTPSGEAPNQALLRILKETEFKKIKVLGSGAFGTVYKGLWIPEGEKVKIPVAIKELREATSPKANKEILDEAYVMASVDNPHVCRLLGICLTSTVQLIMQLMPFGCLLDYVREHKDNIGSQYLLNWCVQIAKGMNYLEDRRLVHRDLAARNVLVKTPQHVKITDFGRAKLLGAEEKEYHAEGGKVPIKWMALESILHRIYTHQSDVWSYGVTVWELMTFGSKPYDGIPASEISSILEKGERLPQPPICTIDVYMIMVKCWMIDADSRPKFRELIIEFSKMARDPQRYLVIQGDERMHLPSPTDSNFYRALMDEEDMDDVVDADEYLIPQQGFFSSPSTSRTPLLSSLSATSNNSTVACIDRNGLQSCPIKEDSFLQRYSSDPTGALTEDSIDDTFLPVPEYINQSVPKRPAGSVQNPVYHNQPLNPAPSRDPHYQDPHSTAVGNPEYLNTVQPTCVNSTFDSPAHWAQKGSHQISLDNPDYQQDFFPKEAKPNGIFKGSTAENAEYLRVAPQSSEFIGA
Sequence of Myosin-IIIa (Homo sapiens) (Q8NEV4 whole entry): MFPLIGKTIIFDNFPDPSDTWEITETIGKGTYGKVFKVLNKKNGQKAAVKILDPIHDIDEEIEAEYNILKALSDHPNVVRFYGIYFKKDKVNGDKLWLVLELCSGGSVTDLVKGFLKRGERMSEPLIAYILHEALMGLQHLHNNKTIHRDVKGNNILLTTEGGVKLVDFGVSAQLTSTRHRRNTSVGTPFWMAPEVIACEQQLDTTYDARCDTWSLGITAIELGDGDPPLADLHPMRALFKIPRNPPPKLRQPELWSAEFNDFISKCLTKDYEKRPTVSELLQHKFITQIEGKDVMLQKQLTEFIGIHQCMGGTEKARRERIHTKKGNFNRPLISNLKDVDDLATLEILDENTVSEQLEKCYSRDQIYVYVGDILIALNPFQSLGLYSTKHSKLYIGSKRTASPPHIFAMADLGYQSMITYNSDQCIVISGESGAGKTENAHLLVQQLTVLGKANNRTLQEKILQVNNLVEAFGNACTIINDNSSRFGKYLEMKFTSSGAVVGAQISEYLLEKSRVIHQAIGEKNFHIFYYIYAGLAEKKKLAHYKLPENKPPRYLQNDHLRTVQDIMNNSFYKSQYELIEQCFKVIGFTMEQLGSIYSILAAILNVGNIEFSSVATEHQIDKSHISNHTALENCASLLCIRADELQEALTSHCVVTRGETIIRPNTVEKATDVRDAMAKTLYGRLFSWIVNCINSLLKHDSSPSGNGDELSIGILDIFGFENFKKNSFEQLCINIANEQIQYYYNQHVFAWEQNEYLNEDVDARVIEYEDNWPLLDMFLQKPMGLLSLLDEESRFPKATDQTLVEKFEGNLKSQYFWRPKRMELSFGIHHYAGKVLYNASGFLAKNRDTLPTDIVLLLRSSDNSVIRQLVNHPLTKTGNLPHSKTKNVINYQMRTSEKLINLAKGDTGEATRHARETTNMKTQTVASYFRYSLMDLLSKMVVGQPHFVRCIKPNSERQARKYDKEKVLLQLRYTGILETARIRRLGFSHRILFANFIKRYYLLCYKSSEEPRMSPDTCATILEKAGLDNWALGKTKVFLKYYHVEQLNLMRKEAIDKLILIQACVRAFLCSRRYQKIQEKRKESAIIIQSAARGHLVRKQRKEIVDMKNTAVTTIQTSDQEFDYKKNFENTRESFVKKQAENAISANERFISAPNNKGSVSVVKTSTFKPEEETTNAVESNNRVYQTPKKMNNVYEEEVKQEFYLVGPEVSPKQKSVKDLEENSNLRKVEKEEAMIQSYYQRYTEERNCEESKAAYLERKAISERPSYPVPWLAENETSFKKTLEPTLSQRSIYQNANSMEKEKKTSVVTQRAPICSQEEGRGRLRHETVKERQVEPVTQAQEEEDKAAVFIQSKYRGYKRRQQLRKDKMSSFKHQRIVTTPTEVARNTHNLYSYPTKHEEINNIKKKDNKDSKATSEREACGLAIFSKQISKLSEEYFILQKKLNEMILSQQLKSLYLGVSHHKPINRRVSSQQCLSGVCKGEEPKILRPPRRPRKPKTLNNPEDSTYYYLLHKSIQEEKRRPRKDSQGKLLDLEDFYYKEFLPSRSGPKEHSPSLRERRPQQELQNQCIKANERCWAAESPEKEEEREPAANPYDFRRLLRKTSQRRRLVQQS
Sequence of Tyrosine-protein kinase Blk (Homo sapiens) (P51451 2-505 limits assumed): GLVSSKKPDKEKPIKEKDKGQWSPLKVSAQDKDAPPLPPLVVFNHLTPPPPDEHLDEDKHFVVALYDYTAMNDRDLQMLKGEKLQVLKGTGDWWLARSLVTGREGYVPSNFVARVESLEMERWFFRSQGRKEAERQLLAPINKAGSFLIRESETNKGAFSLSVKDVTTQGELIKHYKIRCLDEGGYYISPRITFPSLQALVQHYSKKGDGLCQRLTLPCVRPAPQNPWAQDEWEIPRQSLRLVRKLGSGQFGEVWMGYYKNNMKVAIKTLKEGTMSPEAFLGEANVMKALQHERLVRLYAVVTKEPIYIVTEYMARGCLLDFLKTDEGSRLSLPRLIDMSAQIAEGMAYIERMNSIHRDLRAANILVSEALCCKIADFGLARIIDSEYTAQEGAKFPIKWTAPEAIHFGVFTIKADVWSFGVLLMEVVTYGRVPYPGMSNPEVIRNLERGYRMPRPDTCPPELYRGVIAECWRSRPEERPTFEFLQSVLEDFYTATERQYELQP

Consider `C=CC(=O)Nc1ccc(OC)c(Nc2cc(-c3[nH]c(SC)nc3-c3cccc(NC(=O)c4cccc(O)c4CN4Cc5ccccc5C4=O)c3)ccn2)c1`, for which the Ki in data set [1] turned out to be 543 nM. For the same compound, the EC50 with BaF3 [2] came to 3900 nM; in “cells”, 330 nM; in the data set on HCC827 it was 160 nM; in the data set on BaF3 [10], 430 nM. In addition, in data set [3], the Stability result is recorded as “Stable”. In addition, in data set [4], the Drug metabolism result is recorded as “metabolite_detected”. The inhibition (in the data set filed under Homo sapiens; in data set [5]) was less than 10% throughout. For the same compound, the inhibition entry in data set [6], in data set [7], in data set [8] and in [9] was “inactive” each time.
